Results from ChEMBL document CHEMBL3352489, “6-Hydroxyquinolinium salts differing in the length of alkyl side-chain: synthesis and antimicrobial activity” (Bioorg Med Chem Lett, 2014).

Assays:
Staphylococcus aureus [1] = test: Bactericidal activity against Staphylococcus aureus CCM 4516/08 after 48 hrs by microdilution broth method; format: functional; details: CCM 4516/08, 48 h, read-out: MBC>99.9
Enterococcus sp. [2] = test: Bactericidal activity against Enterococcus sp. J 14365/08 after 48 hrs by microdilution broth method; format: functional; details: J 14365/08, 48 h, read-out: MBC>99.9
Trichosporon asahii [3] = test: Fungicidal activity against Trichosporon asahii 1188 after 48 hrs by modified standard CSLI M27-A2 method; format: functional; details: Trichosporon asahii, 1188, 48 h
Pichia kudriavzevii [4] = test: Fungicidal activity against Candida krusei E28 after 48 hrs by modified standard CSLI M27-A2 method; format: functional; details: E28, 48 h
[5] = tested on: Staphylococcus epidermidis; test: Bactericidal activity against Staphylococcus epidermidis H 6966/08 after 48 hrs by microdilution broth method; format: functional; details: H 6966/08, 48 h, read-out: MBC>99.9
Candida tropicalis [6] = test: Fungicidal activity against Candida tropicalis 156 after 48 hrs by modified standard CSLI M27-A2 method; format: functional; details: Candida tropicalis, 156, 48 h
Aspergillus fumigatus [7] = test: Fungicidal activity against Aspergillus fumigatus 231 after 48 hrs by modified standard CSLI M27-A2 method; format: functional; details: Aspergillus fumigatus, 231, 48 h
Staphylococcus aureus [8] = test: Bactericidal activity against Staphylococcus aureus H 5996/08 after 48 hrs by microdilution broth method; format: functional; details: H 5996/08, 48 h, read-out: MBC>99.9
Escherichia coli [9] = test: Bactericidal activity against Escherichia coli CCM 4517 after 48 hrs by microdilution broth method; format: functional; details: CCM 4517, 48 h, read-out: MBC>99.9
[10] = tested on: Trichophyton mentagrophytes; test: Fungicidal activity against Trichophyton mentagrophytes 445 after 120 hrs by modified standard CSLI M27-A2 method; format: functional; details: Trichophyton mentagrophytes, 445, 120 h
Nakaseomyces glabratus [11] = test: Fungicidal activity against Candida glabrata 20/I after 48 hrs by modified standard CSLI M27-A2 method; format: functional
Pseudomonas aeruginosa [12] = test: Bactericidal activity against Pseudomonas aeruginosa CCM 1961 after 120 hrs by microdilution broth method; format: functional; details: CCM 1961, 120 h, read-out: MBC>99.9
Lichtheimia corymbifera [13] = test: Fungicidal activity against Absidia corymbifera 272 after 48 hrs by modified standard CSLI M27-A2 method; format: functional; details: Lichtheimia corymbifera, 272, 48 h
Candida albicans [14] = test: Fungicidal activity against Candida albicans ATCC 44859 after 48 hrs by modified standard CSLI M27-A2 method; format: functional; details: ATCC 44859, 48 h
Klebsiella pneumoniae [15] = test: Bactericidal activity against Klebsiella pneumoniae J 14368/08 after 48 hrs by microdilution broth method; format: functional; details: J 14368/08, 48 h, read-out: MBC>99.9
Klebsiella pneumoniae [16] = test: Bactericidal activity against Klebsiella pneumoniae D 11750/08 after 24 hrs by microdilution broth method; format: functional; details: D 11750/08, 24 h, read-out: MBC>99.9
Klebsiella pneumoniae [17] = test: microbe, parasite or virus in culture; format: functional; details: D 11750/08, 48 h
Description: Antibacterial activity against Klebsiella pneumoniae D 11750/08 after 48 hrs by microdilution broth method

[18] = tested on: Trichophyton mentagrophytes; test: microbe, parasite or virus in culture; format: functional; details: Trichophyton mentagrophytes, 445, 72 h
Description: Antifungal activity against Trichophyton mentagrophytes 445 after 72 hrs by modified standard CSLI M27-A2 method

Klebsiella pneumoniae [19] = test: microbe, parasite or virus in culture; format: functional; details: J 14368/08, 48 h
Description: Antibacterial activity against Klebsiella pneumoniae J 14368/08 after 48 hrs by microdilution broth method

Lichtheimia corymbifera [20] = test: microbe, parasite or virus in culture; format: functional; details: Lichtheimia corymbifera, 272, 48 h
Description: Antifungal activity against Absidia corymbifera 272 after 48 hrs by modified standard CSLI M27-A2 method

Lichtheimia corymbifera [21] = test: microbe, parasite or virus in culture; format: functional; details: Lichtheimia corymbifera, 272, 24 h
Description: Antifungal activity against Absidia corymbifera 272 after 24 hrs by modified standard CSLI M27-A2 method

[22] = tested on: Staphylococcus epidermidis; test: microbe, parasite or virus in culture; format: functional; details: H 6966/08, 48 h
Description: Antibacterial activity against Staphylococcus epidermidis H 6966/08 after 48 hrs by microdilution broth method

Pseudomonas aeruginosa [23] = test: microbe, parasite or virus in culture; format: functional; details: CCM 1961, 120 h
Description: Antibacterial activity against Pseudomonas aeruginosa CCM 1961 after 120 hrs by microdilution broth method

Pichia kudriavzevii [24] = test: Antifungal activity against Candida krusei E28 after 24 hrs by modified standard CSLI M27-A2 method; format: functional; details: E28, 24 h
Staphylococcus aureus [25] = test: microbe, parasite or virus in culture; format: functional; details: CCM 4516/08, 24 h
Description: Antibacterial activity against Staphylococcus aureus CCM 4516/08 after 24 hrs by microdilution broth method

Candida albicans [26] = test: microbe, parasite or virus in culture; format: functional; details: ATCC 44859, 24 h
Description: Antifungal activity against Candida albicans ATCC 44859 after 24 hrs by modified standard CSLI M27-A2 method

Escherichia coli [27] = test: microbe, parasite or virus in culture; format: functional; details: CCM 4517, 48 h
Description: Antibacterial activity against Escherichia coli CCM 4517 after 48 hrs by microdilution broth method

Trichosporon asahii [28] = test: microbe, parasite or virus in culture; format: functional; details: Trichosporon asahii, 1188, 48 h
Description: Antifungal activity against Trichosporon asahii 1188 after 48 hrs by modified standard CSLI M27-A2 method

Staphylococcus aureus [29] = test: microbe, parasite or virus in culture; format: functional; details: H 5996/08, 48 h
Description: Antibacterial activity against Staphylococcus aureus H 5996/08 after 48 hrs by microdilution broth method

Pichia kudriavzevii [30] = test: Antifungal activity against Candida krusei E28 after 48 hrs by modified standard CSLI M27-A2 method; format: functional; details: E28, 48 h
Candida tropicalis [31] = test: microbe, parasite or virus in culture; format: functional; details: Candida tropicalis, 156, 48 h
Description: Antifungal activity against Candida tropicalis 156 after 48 hrs by modified standard CSLI M27-A2 method

Enterococcus sp. [32] = test: microbe, parasite or virus in culture; format: functional; details: J 14365/08, 48 h
Description: Antibacterial activity against Enterococcus sp. J 14365/08 after 48 hrs by microdilution broth method

Candida tropicalis [33] = test: microbe, parasite or virus in culture; format: functional; details: Candida tropicalis, 156, 24 h
Description: Antifungal activity against Candida tropicalis 156 after 24 hrs by modified standard CSLI M27-A2 method

Candida albicans [34] = test: microbe, parasite or virus in culture; format: functional; details: ATCC 44859, 48 h
Description: Antifungal activity against Candida albicans ATCC 44859 after 48 hrs by modified standard CSLI M27-A2 method

Staphylococcus aureus [35] = test: microbe, parasite or virus in culture; format: functional; details: CCM 4516/08, 48 h
Description: Antibacterial activity against Staphylococcus aureus CCM 4516/08 after 48 hrs by microdilution broth method

[36] = tested on: Staphylococcus epidermidis; test: microbe, parasite or virus in culture; format: functional; details: H 6966/08, 24 h
Description: Antibacterial activity against Staphylococcus epidermidis H 6966/08 after 24 hrs by microdilution broth method

Pseudomonas aeruginosa [37] = test: microbe, parasite or virus in culture; format: functional; details: CCM 1961, 72 h
Description: Antibacterial activity against Pseudomonas aeruginosa CCM 1961 after 72 hrs by microdilution broth method

Klebsiella pneumoniae [38] = test: microbe, parasite or virus in culture; format: functional; details: D 11750/08, 24 h
Description: Antibacterial activity against Klebsiella pneumoniae D 11750/08 after 24 hrs by microdilution broth method

Escherichia coli [39] = test: microbe, parasite or virus in culture; format: functional; details: CCM 4517, 24 h
Description: Antibacterial activity against Escherichia coli CCM 4517 after 24 hrs by microdilution broth method

Aspergillus fumigatus [40] = test: microbe, parasite or virus in culture; format: functional; details: Aspergillus fumigatus, 231, 24 h
Description: Antifungal activity against Aspergillus fumigatus 231 after 24 hrs by modified standard CSLI M27-A2 method

[41] = Cytotoxicity against CHOK1 cells after 24 hrs by MTT assay; format: ADME, cell-based; details: Cricetulus griseus, CHO-K1, 24 h
Klebsiella pneumoniae [42] = test: microbe, parasite or virus in culture; format: functional; details: J 14368/08, 24 h
Description: Antibacterial activity against Klebsiella pneumoniae J 14368/08 after 24 hrs by microdilution broth method

Nakaseomyces glabratus [43] = test: Antifungal activity against Candida glabrata 20/I after 24 hrs by modified standard CSLI M27-A2 method; format: functional
Trichosporon asahii [44] = test: microbe, parasite or virus in culture; format: functional; details: Trichosporon asahii, 1188, 24 h
Description: Antifungal activity against Trichosporon asahii 1188 after 24 hrs by modified standard CSLI M27-A2 method

Nakaseomyces glabratus [45] = test: Antifungal activity against Candida glabrata 20/I after 48 hrs by modified standard CSLI M27-A2 method; format: functional
[46] = tested on: Trichophyton mentagrophytes; test: microbe, parasite or virus in culture; format: functional; details: Trichophyton mentagrophytes, 445, 120 h
Description: Antifungal activity against Trichophyton mentagrophytes 445 after 120 hrs by modified standard CSLI M27-A2 method

Staphylococcus aureus [47] = test: microbe, parasite or virus in culture; format: functional; details: H 5996/08, 24 h
Description: Antibacterial activity against Staphylococcus aureus H 5996/08 after 24 hrs by microdilution broth method

Enterococcus sp. [48] = test: microbe, parasite or virus in culture; format: functional; details: J 14365/08, 24 h
Description: Antibacterial activity against Enterococcus sp. J 14365/08 after 24 hrs by microdilution broth method

Aspergillus fumigatus [49] = test: microbe, parasite or virus in culture; format: functional; details: Aspergillus fumigatus, 231, 48 h
Description: Antifungal activity against Aspergillus fumigatus 231 after 48 hrs by modified standard CSLI M27-A2 method

SMILES: CCCCCCCCCCCCCCCC[n+]1ccccc1 [CETYLPYRIDINIUM BROMIDE]
- MBC (Staphylococcus aureus [1]): 3.91 µM
- MBC (Enterococcus sp. [2]): 7.81 µM
- MFC (Trichosporon asahii [3]): 7.81 µM
- MFC (Pichia kudriavzevii [4]): 1.95 µM
- MBC [5]: 3.91 µM
- MFC (Candida tropicalis [6]): 3.9 µM
- MFC (Aspergillus fumigatus [7]): 15.6 µM
- MBC (Staphylococcus aureus [8]): 3.91 µM
- MBC (Escherichia coli [9]): 7.81 µM
- MFC [10]: 7.81 µM
- MFC (Nakaseomyces glabratus [11]): 3.91 µM
- MBC (Pseudomonas aeruginosa [12]): 125 µM
- MFC (Lichtheimia corymbifera [13]): 62.5 µM
- MFC (Candida albicans [14]): 15.6 µM
- MBC (Klebsiella pneumoniae [15]): 7.81 µM
- MBC (Klebsiella pneumoniae [16]): 15.6 µM

SMILES: CCCCCCCCCCCCCC[n+]1ccccc1
- MIC95 (Klebsiella pneumoniae [17]): 15.6 µM
- MIC [18]: 15.6 µM
- MBC (Staphylococcus aureus [1]): 3.91 µM
- MBC (Enterococcus sp. [2]): 15.6 µM
- MIC95 (Klebsiella pneumoniae [19]): 7.81 µM
- MFC (Trichosporon asahii [3]): 250 µM
- MIC (Lichtheimia corymbifera [20]): 125 µM
- MIC (Lichtheimia corymbifera [21]): 125 µM
- MIC95 [22]: 0.49 µM
- MIC95 (Pseudomonas aeruginosa [23]): 125 µM
- MIC (Pichia kudriavzevii [24]): 0.98 µM
- MFC (Pichia kudriavzevii [4]): 250 µM
- MBC [5]: 0.49 µM
- MIC95 (Staphylococcus aureus [25]): 0.98 µM
- MIC (Candida albicans [26]): 7.81 µM
- MIC95 (Escherichia coli [27]): 7.81 µM
- MIC (Trichosporon asahii [28]): 31.2 µM
- MFC (Candida tropicalis [6]): 250 µM
- MIC95 (Staphylococcus aureus [29]): 3.91 µM
- MIC (Pichia kudriavzevii [30]): 0.98 µM
- MIC (Candida tropicalis [31]): 1.95 µM
- MFC (Aspergillus fumigatus [7]): 250 µM
- MIC95 (Enterococcus sp. [32]): 1.95 µM
- MBC (Staphylococcus aureus [8]): 3.91 µM
- MIC (Candida tropicalis [33]): 1.95 µM
- MIC (Candida albicans [34]): 7.81 µM
- MBC (Escherichia coli [9]): 7.81 µM
- MIC95 (Staphylococcus aureus [35]): 0.98 µM
- MFC [10]: 31.2 µM
- MFC (Nakaseomyces glabratus [11]): 250 µM
- MBC (Pseudomonas aeruginosa [12]): 125 µM
- MIC95 [36]: 0.49 µM
- MIC95 (Pseudomonas aeruginosa [37]): 125 µM
- MIC95 (Klebsiella pneumoniae [38]): 15.6 µM
- MFC (Lichtheimia corymbifera [13]): 250 µM
- MIC95 (Escherichia coli [39]): 7.81 µM
- MIC (Aspergillus fumigatus [40]): 15.6 µM
- IC50 [41]: 25 µM
- MIC95 (Klebsiella pneumoniae [42]): 7.81 µM
- MIC (Nakaseomyces glabratus [43]): 1.95 µM
- MIC (Trichosporon asahii [44]): 31.2 µM
- MIC (Nakaseomyces glabratus [45]): 1.95 µM
- MFC (Candida albicans [14]): 125 µM
- MBC (Klebsiella pneumoniae [15]): 7.81 µM
- MIC [46]: 15.6 µM
- MBC (Klebsiella pneumoniae [16]): 15.6 µM
- MIC95 (Staphylococcus aureus [47]): 3.91 µM
- MIC95 (Enterococcus sp. [48]): 1.95 µM
- MIC (Aspergillus fumigatus [49]): 31.2 µM

SMILES: CCCCCCCCCCCCCC[N+](C)(C)Cc1ccccc1
- MIC95 (Klebsiella pneumoniae [17]): 7.81 µM
- MIC [18]: 15.6 µM
- MBC (Staphylococcus aureus [1]): 3.91 µM
- MBC (Enterococcus sp. [2]): 7.81 µM
- MIC95 (Klebsiella pneumoniae [19]): 7.81 µM
- MFC (Trichosporon asahii [3]): 125 µM
- MIC (Lichtheimia corymbifera [20]): 31.2 µM
- MIC (Lichtheimia corymbifera [21]): 31.2 µM
- MIC95 [22]: 0.98 µM
- MIC95 (Pseudomonas aeruginosa [23]): 31.2 µM
- MIC (Pichia kudriavzevii [24]): 3.91 µM
- MFC (Pichia kudriavzevii [4]): 125 µM
- MBC [5]: 0.98 µM
- MIC95 (Staphylococcus aureus [25]): 0.98 µM
- MIC (Candida albicans [26]): 7.81 µM
- MIC95 (Escherichia coli [27]): 7.81 µM
- MIC (Trichosporon asahii [28]): 31.2 µM
- MFC (Candida tropicalis [6]): 125 µM
- MIC95 (Staphylococcus aureus [29]): 1.95 µM
- MIC (Pichia kudriavzevii [30]): 3.91 µM
- MIC (Candida tropicalis [31]): 3.91 µM
- MFC (Aspergillus fumigatus [7]): 125 µM
- MIC95 (Enterococcus sp. [32]): 1.95 µM
- MBC (Staphylococcus aureus [8]): 3.91 µM
- MIC (Candida tropicalis [33]): 3.91 µM
- MIC (Candida albicans [34]): 7.81 µM
- MBC (Escherichia coli [9]): 7.81 µM
- MIC95 (Staphylococcus aureus [35]): 0.98 µM
- MFC [10]: 15.6 µM
- MFC (Nakaseomyces glabratus [11]): 125 µM
- MBC (Pseudomonas aeruginosa [12]): 62.5 µM
- MIC95 [36]: 0.98 µM
- MIC95 (Pseudomonas aeruginosa [37]): 15.6 µM
- MIC95 (Klebsiella pneumoniae [38]): 7.81 µM
- MFC (Lichtheimia corymbifera [13]): 125 µM
- MIC95 (Escherichia coli [39]): 7.81 µM
- MIC (Aspergillus fumigatus [40]): 7.81 µM
- IC50 [41]: 24 µM
- MIC95 (Klebsiella pneumoniae [42]): 7.81 µM
- MIC (Nakaseomyces glabratus [43]): 7.81 µM
- MIC (Trichosporon asahii [44]): 31.2 µM
- MIC (Nakaseomyces glabratus [45]): 7.81 µM
- MFC (Candida albicans [14]): 125 µM
- MBC (Klebsiella pneumoniae [15]): 7.81 µM
- MIC [46]: 15.6 µM
- MBC (Klebsiella pneumoniae [16]): 7.81 µM
- MIC95 (Staphylococcus aureus [47]): 1.95 µM
- MIC95 (Enterococcus sp. [48]): 1.95 µM
- MIC (Aspergillus fumigatus [49]): 15.6 µM
